Assay results reported in article PMC4594923, “Food Polyphenols Fail to Cause a Biologically Relevant Reduction of COX-2 Activity” (PLoS ONE, 2015).
Entries after “also recorded” stand apart in the source; their conditions may differ. Marks after values point to notes of the source that are not given here.

Key:
[1] = clinical chemistry in plasma (urea, creatinine, AST, ALT, LDH) in LPS induced sepsis in mice; type: in vivo, C57BL/6N mice; conditions: compound i. p. 100 mg/kg bw 2 h before LPS, 24 h after LPS
[2] = tested on: arachidonic acid (AA) cascade; assay: kidney tissue oxylipin/PG levels in LPS induced sepsis in mice; conditions: kidney tissue 24 h after LPS treatment, LPS +, mean;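 further: male C57BL/6N mice challenged with LPS, kidney taken 24 h later, oxylipins quantified by LC-MS after solid-phase extraction of tissue homogenate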
Text: Twelve week old male C57BL/6N mice (Charles River, Sulzfeld, Germany) were used for all experiments. C57BL/6 male mice (H2^b, 11–13 weeks of age) were obtained from Charles River (Sulzfeld, Germany). Animals were cared for in accordance with the institution’s guidelines for experimental animals and with the guidelines of the American Physiological Society. […] Mice were monitored closely and if they appeared compromised (i.e. inactivity, no intake of food or water) after compound or LPS injection the experiment was terminated.
Oxylipin levels were analyzed in plasma and tissues by LC-MS following SPE extraction of 200 μl plasma or tissue homogenate (50 mg) on Chromabond C18 ec cartridges (Machery-Nagel, Düren, Germany) [19].
GraphPad Prism 5.0 (GraphPad Software, San Diego, USA) was used for data analysis, the fitting of dose response curves and calculation of the IC50 values. Statistical differences were determined by Dunnetts test (LPS vs. other groups).

Oc1ccc(/C=C/c2cc(O)cc3c2[C@@H](c2cc(O)cc(O)c2)[C@H](c2ccc(O)cc2)O3)cc1 [ε-Viniferin, ε-viniferin]
plasma ALT activity [1]: elevated; also recorded: moderate elevation | plasma AST activity [1]: elevated; also recorded: moderate elevation | plasma LDH activity [1]: moderate elevation | plasma creatinine level [1]: elevation | plasma urea level [1]: elevation | 1a,1b-dihomo-PGF2α [2]: 3.2^† nM | 4,5-DiHDPE [2]: 26^‡ nM | 4-HDHA [2]: 22 nM | 5(6)-EpETrE [2]: 70 nM | 5,6-DiHETrE [2]: 2.2^‡ nM | 5-HEPE [2]: 1.1 nM | 5-HETE [2]: 13 nM | 5-oxo-ETE [2]: 24 nM | 6-keto-PGF1α [2]: 108^‡ nM | 7,8-DiHDPE [2]: 1.9 nM | 7-HDHA [2]: 2.7 nM | 8(9)-EpETrE [2]: 15 nM | 8,9-DiHETrE [2]: 2.2^* nM | 8-HDHA [2]: 18^* nM | 8-HETE [2]: 4.4 nM | 8-iPF2a [2]: 2.7^† nM | 9(10)-EpODE [2]: 9.9 nM | 9(10)-EpOME [2]: 110 nM | 9(10)-Epoxystearic acid [2]: 64 nM | 9,10,13-TriHOME [2]: 10 nM | 9,10-DiHODE [2]: 2.0 nM | 9,10-DiHOME [2]: 27 nM | 9,10-Dihydroxystearic acid [2]: 87 nM | 9,12,13-TriHOME [2]: 69^‡ nM | 9-HETE [2]: 3.6 nM | 9-HODE [2]: 380^† nM | 9-HOTrE [2]: 5.8 nM | 9-oxo-ODE [2]: 73 nM | 10(11)-EpDPE [2]: 27 nM | 10,11-DiHDPE [2]: 2.3 nM | 10-HDHA [2]: 3.6 nM | 11(12)-EpETE [2]: 1.4 nM | 11(12)-EpETrE [2]: 35 nM | 11,12-DiHETrE [2]: 1.8^‡ nM | 11-HDHA [2]: 5.4 nM | 11-HETE [2]: 22^† nM | 12(13)-EpODE [2]: 4.3 nM | 12(13)-EpOME [2]: 80 nM | 12,13-DiHOME [2]: 32^† nM | 12-HEPE [2]: 5.0 nM | 12-HETE [2]: 47 nM | 13(14)-EpDPE [2]: 22 nM | 13,14-DiHDPE [2]: 1.4 nM | 13,14-dihydro-15-keto-PGF2α [2]: 4.6^‡ nM | 13-HDHA [2]: 7.7 nM | 13-HODE [2]: 310^† nM | 13-HOTrE [2]: 6.0 nM | 13-oxo-ODE [2]: 8.3 nM | 14(15)-EpETE [2]: 1.7 nM | 14(15)-EpETrE [2]: 29 nM | 14,15-DiHETE [2]: 0.38^‡ nM | 14,15-DiHETrE [2]: 3.4^‡ nM | 14-HDHA [2]: 20 nM | 15(16)-EpODE [2]: 22 nM | 15(S)-HETrE [2]: 8.0^‡ nM | 15,16-DiHODE [2]: 22 nM | 15-HETE [2]: 30^* nM | 15-oxo-ETE [2]: 9.3 nM | 16(17)-EpDPE [2]: 21 nM | 16,17-DiHDPE [2]: 2.7^‡ nM | 16-HDHA [2]: 4.9^* nM | 17(18)-EpETE [2]: 2.4 nM | 17,18-DiHETE [2]: 1.8^‡ nM | 17-HDHA [2]: 15 nM | 18-HEPE [2]: 1.5 nM | 19(20)-EpDPE [2]: 36 nM | 19,20-DiHDPE [2]: 31^‡ nM | 20-HDHA [2]: 17 nM | 20-HEPE [2]: 11 nM | EKODE [2]: 92^‡ nM | PGD2 [2]: 19^† nM | PGE1 [2]: 8.3 nM | PGE2 [2]: 110 nM | PGF1α [2]: 7.7^‡ nM | PGF2α [2]: 63^‡ nM | TXB2 [2]: 4.9^‡ nM | 5,6-DiHETE ([2]; < = below LOQ): < 0.25 nM | 5-iPF2α ([2]; < = below LOQ): 1.5^‡ nM | 8(9)-EpETE ([2]; < = below LOQ): 1.2 nM | 12,13-DiHODE ([2]; < = below LOQ): < 2.0 nM | 13,14-dihydro-15-keto-PGE1 ([2]; < = below LOQ): 0.49 nM | 20-HETE ([2]; < = below LOQ): 3.6^* nM | PGD1 ([2]; < = below LOQ): 0.84^† nM
